1 compound from patent publication US20220054425A1, “NANOCAPSULES COATED WITH CHITOSAN AND USE THEREOF” (SKINMED CO., LTD., priority 2018, published 2022) can be followed below.

The data set in a line: Skin permeability, Franz diffusion cell system. Type of data set: in vitro ADME. Particulars: human cadaver skin, fluorescence, up to 24 hours. From the text:
In a Franz diffusion cell system, a formulation including a drug is applied to a donor chamber while a receptor chamber is filled with physiological saline such as PBS (phosphate buffered saline), with a permeable layer, such as a permeable membrane, animal skin or cell culture skin, fixed between the donor chamber and the receptor chamber. Skin permeability can be determined by measuring the amount of the drug diffusing from the donor chamber to the receptor chamber.
In a Franz diffusion cell system, 5 ml of PBS (pH 7.4 containing 0.05% polysorbate 80) was added to the receptor chamber, a human cadaver skin with a size of 1.5×1.5 cm was fixed between the receptor chamber and the donor chamber, and each sample was placed in a donor chamber. The conditions of 37° C. and 600 rpm were set in the receptor chamber and 500 μl of the sample was recovered each time at sample times of 0.5, 1, 2, 4, 8, 12, 18, and 24 hours. The drug passing through the skin was quantitated according to time by HPLC. The result is depicted in FIG. 18.
To a donor chamber, chitosan-coated nanocapsules containing 2 wt % of Nile red (Nile red@ChiNC) were added in an amount of 2 mg/ml. As a control, Nile red alone, or Nile red-containing nanocapsules without a chitosan coating (Nile red@PluNC) were employed. […] Fluorescence in the samples taken at the predetermined times was measured. […]

Turning to `CCN(CC)c1ccc2nc3c4ccccc4c(=O)cc-3oc2c1` [Nile red], the “skin permeability of Nile red” value is given as “almost did not penetrate into the skin”.
